# Measurements: patent publication US11285153B2, “Substituted pyrimidine piperazine compound and use thereof” (SUNSHINE LAKE PHARMA CO., LTD., priority 2017, dated 2022)
# Legend:
# [1] = molecular target: T1, humanized 5-HT transporter (SERT) (Homo sapiens, UniProt P31645); test: Affinity to humanized 5-HT transporter (SERT), [3H]imipramine binding, transfected CHO cell membranes; conditions: 2 nM [3H]imipramine, 22° C., 60 minutes
# T1 construct: expressed in transfected cells; host or cells: CHO cells, membrane homogenate
# T1 sequence (P31645 whole entry): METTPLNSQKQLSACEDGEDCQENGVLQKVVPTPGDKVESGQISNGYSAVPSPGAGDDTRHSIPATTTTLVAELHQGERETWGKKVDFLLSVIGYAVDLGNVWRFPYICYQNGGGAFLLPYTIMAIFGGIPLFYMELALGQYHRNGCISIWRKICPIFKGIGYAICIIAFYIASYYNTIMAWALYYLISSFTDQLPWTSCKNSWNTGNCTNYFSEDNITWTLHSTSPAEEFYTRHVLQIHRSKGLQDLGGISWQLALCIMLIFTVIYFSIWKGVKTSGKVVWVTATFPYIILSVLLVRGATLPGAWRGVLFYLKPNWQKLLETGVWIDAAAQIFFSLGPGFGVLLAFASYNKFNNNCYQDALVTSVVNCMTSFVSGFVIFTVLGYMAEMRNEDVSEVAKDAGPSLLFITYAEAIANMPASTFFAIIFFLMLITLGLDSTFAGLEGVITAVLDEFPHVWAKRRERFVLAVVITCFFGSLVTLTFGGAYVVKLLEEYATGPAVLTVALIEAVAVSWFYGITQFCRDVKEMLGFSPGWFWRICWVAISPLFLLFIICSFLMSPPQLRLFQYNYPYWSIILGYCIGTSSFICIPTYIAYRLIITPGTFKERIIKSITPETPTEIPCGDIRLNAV
# Protocol: Example A: Evaluation of the Affinity of the Compound of the Invention to Humanized 5-HT Transporter Transfected by CHQ Cells
# To a mixture of cell membrane homogenate protein (12 μg), 2 nM [^3H] imipramine, buffer (50 mM Tris-HCl (pH 7.4), 120 mM NaCl, 5 mM KCl, and 0.1% BSA) was added test compound or not under a condition of 22° C. The reaction mixture was incubated for 60 minutes.
# To the mixture of the above condition was added 10 μM imipramine to measure the non-specific binding value.
# (§1) The incubated samples were quickly filtered through a glass fiber membrane (GF/B, Packard) impregnated with 0.3% PEI by a 96-well cell collector (Unifilter, Packard) under vacuum, and repeatedly rinsed with cold 50 mM Tris-HCl and 150 mM NaCl for several times. The filter was dried and the residual radioactivity was calculated in a scintillation counter (Topcount, Packard) by using scintillation fluid (Microscint 0, Packard). The experimental results were expressed as a percentage of inhibition of specific binding of radioligand to the control group.
# The standard reference compound was imipramine. The competitive curve was obtained by a series of concentration experiments and the IC50 was calculated.
# [2] = molecular target: T2, 5-HT1A receptor (Homo sapiens, UniProt P08908); test: h5-HT1A binding affinity test, [3H]8-OH-DPAT, HEK-293 cell membranes; conditions: 0.3 nM [3H]8-OH-DPAT, 22° C., 60 minutes; from IC50 by ChengPrusoff equation
# T2 construct: host or cells: human HEK-293 cells, membrane homogenate
# T2 sequence (P08908 1-422): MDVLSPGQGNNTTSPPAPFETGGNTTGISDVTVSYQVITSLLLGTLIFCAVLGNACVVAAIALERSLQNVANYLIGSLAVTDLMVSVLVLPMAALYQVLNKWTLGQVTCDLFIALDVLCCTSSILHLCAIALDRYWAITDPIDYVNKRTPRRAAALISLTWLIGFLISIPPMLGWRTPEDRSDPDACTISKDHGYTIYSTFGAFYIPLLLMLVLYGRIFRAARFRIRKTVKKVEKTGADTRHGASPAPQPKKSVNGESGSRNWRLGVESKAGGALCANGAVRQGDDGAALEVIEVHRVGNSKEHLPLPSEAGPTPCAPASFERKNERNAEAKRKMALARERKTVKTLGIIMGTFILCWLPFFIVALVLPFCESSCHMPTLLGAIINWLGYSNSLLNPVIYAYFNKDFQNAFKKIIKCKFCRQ
# Protocol: Example B: h5-HT1A Binding Affinity Test
# To a mixture of human HEK-293 cell membrane homogenate (36 μg protein), 0.3 nM [^3H]8-OH-DPAT (Perkin-Elmer) and buffer (50 mM Tris-HCl (pH 7.4), 10 mM MgSO4, 0.5 mM EDTA, 2 μg/ml aprotinine) was added test compound or not under a condition of 22° C. The reaction mixture was incubated for 60 minutes.
# The standard reference compound was 8-OH-DPAT. To a mixture of the above condition was added 10 μM 8-OH-DPAT to measure the non-specific binding value. A competitive curve was obtained by testing the data of a series of concentrations of 8-OH-DPAT in different experiments.
# as §1, with “Tris-HCl” for “Tris-HCl and 150 mM NaCl”
# The binding assay of [^3H]8-OH-DPAT (0.3 nM) to the 5-HT1A receptor in human HEK-293 cells was performed by a scintillation proximity assay of the membrane. The test compound needed to be tested at least three times at a concentration exceeding 6 log, and the data was subjected to nonlinear regression analysis by a Hill equation curve to obtain an IC50 value, which was then calculated by the ChengPrusoff equation to obtain a Ki value.
# [3] = Pharmacokinetic evaluation in rats after intravenous or intragastric administration; format: in vivo; conditions: SD, rat, plasma
# Protocol: Pharmacokinetics of the compound of the invention in rats, dogs and monkeys were studied and evaluated.
# The compound was administered to the tested animals in the form of 5% DMSO+5% Kolliphor HS15+2% (2% HCl)+88% Saline saline solution or 10% DMSO+10% Kolliphor HS15+80% normal saline solution. For the intravenous administration group, the dose was 1 mg/kg, and then the venous blood (0.3 mL) was taken at a time of 0, 0.083, 0.25, 0.5, 1.0, 2.0, 5.0, 7.0, and 24 hours after administration, and centrifuged at 3,000 or 4,000 rpm for 10 minutes. The plasma solution was collected and stored at −20° C. or −70° C. For the intragastric administration group, the dose was 2.5 mg/kg, and then the venous blood (0.3 mL) was taken at a time of 0, 0.083, 0.25, 0.5, 1.0, 2.0, 5.0, 7.0, and 24 hours after administration, and centrifuged at 3,000 or 4,000 rpm for 10 minutes. The plasma solution was collected and stored at −20° C. or −70° C.
# The plasma solutions obtained from each of the above groups were subjected to LC/MS/MS analysis.
# The LC/MS/MS system for analysis included the Agilent 1200 Series vacuum degasser, binary pump, orifice autosampler, thermostatic column oven, and Agilent G6430A triple quadrupole mass spectrometer with electrospray ionization (ESI) source.
# Analysis was performed using a waters XBridge C18 (2.1×50 mm) column. The column was 3.5 μM and injection volume was 5 μL. The analytical conditions were as follows: mobile phase A: water+2 mM ammonium formate+0.1% formic acid mobile phase B: methanol+2 mM ammonium formate+0.1% formic acid. The flow rate was 0.4 mL/min.
# [4] = tested on: mice; test: Forced swimming test of mice, stationary time; format: in vivo, C57BL/6 mice; conditions: for Stationary time: 3 mg/kg intraperitoneally 30 minutes before the test, last 4 minutes of 6 minutes, Mean ± SEM, vehicle 120.4 ± 16.5
# Protocol: The effects of the compound of the invention on the stationary time in a forced swimming test of mice were evaluated in the present invention.
# Animals (C57BL/6 mice) were fed in the animal house barrier system one week earlier to adapt to the rearing environment of animal house. Three days before the trial, each animal was touched 2-3 minutes/day. On the day of the experiment, the animals were transferred to the operating room 60 minutes in advance, and were randomly divided into a vehicle group (20% HP-β-CD+80% H2O), a 40 mg/kg dose group of hydrochloride of Desipramine as the standard reference compound, 1, 3, 10 mg/kg dose groups of the phosphate of the test compound, a 3 mg/kg dose group of the hydrochloride of Vilazone, and a 3 mg/kg dose group of hydrochloride of compound A, a total of 7 groups, the number of animals in each group was 15-16. The vehicle, the standard reference compound of Desipramine, the test compound, Vilazodone or Compound A were intraperitoneally injected 30 minutes before the test. The mice were placed in the experimental apparatus during the test. The experimental apparatus was a cylindrical organic transparent glass tank (23 cm high and 12 cm in diameter). The water level was 8 cm from the bottom and the water temperature was 22±2° C. The length of each test was 6 minutes. There was one animal in each sink, recorded by an Ethovision software and a double-blind manual counting analysis. The stationary time of the last 4 minutes of the animal was recorded. All the experimental results were expressed as mean ±standard error (Mean ±SEM). Prism 6.0 statistical software was used to test and analyze the results. The significance of the difference was P<0.05, and P<0.01 was very significant.
Structure (SMILES),IC50 [1],Ki [2],other results
"N#Cc1ccc2[nH]cc(CCCCN3CCN(c4ncc(-c5ccc(C(N)=O)cn5)cn4)CC3)c2c1 [Example 1, 6-(2-(4-(4-(5-cyano-1H-indol-3-yl)butyl)piperazin-1-yl)pyrimidin-5-yl)nicotinamide]",0.68 nM,2.13 nM,
"N#Cc1ccc2[nH]cc(CCCN3CCN(c4ncc(-c5ccc(C(N)=O)cn5)cn4)CC3)c2c1 [Example 2, 6-(2-(4-(3-(5-cyano-1H-indol-3-yl)propyl)piperazin-1-yl)pyrimidin-5-yl)nicotinamide]",0.45 nM,4.31 nM,
"N#Cc1ccc2[nH]cc(CCCN3CCN(c4ncc(-c5ccc(C(N)=O)nc5)cn4)CC3)c2c1 [Example 4, 5-(2-(4-(3-(5-cyano-1H-indol-3-yl)propyl)piperazin-1-yl)pyrimidin-5-yl)pyridine-2-carboxamide]",0.81 nM,4.13 nM,
"Cc1nc(-c2cnc(N3CCN(CCCCc4c[nH]c5ccc(C#N)cc45)CC3)nc2)sc1C(N)=O [Example 7, 2-(2-(4-(4-(5-cyano-1H-indol-3-yl)butyl)piperazin-1-yl)pyrimidin-5-yl)-4-methylthiazole-5-formamide]",0.77 nM,1.01 nM,
"Cc1nc(-c2cnc(N3CCN(CCCc4c[nH]c5ccc(C#N)cc45)CC3)nc2)sc1C(N)=O [Example 8, 2-(2-(4-(3-(5-cyano-1H-indol-3-yl)propyl)piperazin-1-yl)pyrimidin-5-yl)-4-methylthiazole-5-formamide]",0.33 nM,2.14 nM,"AUC(0-inf) ([3]; iv, 1 mg/kg): 1820 ng·h/mL; AUC(0-t) ([3]; iv, 1 mg/kg): 1740 ng·h/mL; Cmax ([3]; iv, 1 mg/kg): 1000 ng/mL; Tmax ([3]; iv, 1 mg/kg): 0.083 h; clearance ([3]; iv, 1 mg/kg): 9.22 mL/min/kg; half-life ([3]; iv, 1 mg/kg): 1.72 h; Vd ([3]; iv, 1 mg/kg, read-out: Vss): 1.3 L/kg; AUC(0-inf) ([3]; po, 2.5 mg/kg): 1550 ng·h/mL; AUC(0-t) ([3]; po, 2.5 mg/kg): 1740 ng·h/mL; Cmax ([3]; po, 2.5 mg/kg): 590 ng/mL; Tmax ([3]; po, 2.5 mg/kg): 1 h; bioavailability ([3]; po, 2.5 mg/kg): 39.8%; half-life ([3]; po, 2.5 mg/kg): 1.58 h"
"CCOC(=O)c1sc(-c2cnc(N3CCN(CCCc4c[nH]c5ccc(C#N)cc45)CC3)nc2)nc1C [Example 10, ethyl 2-(2-(4-(3-(5-cyano-1H-indol-3-yl)propyl)piperazin-1-yl)pyrimidin-5-yl)-4-methylthiazole-5-formate]",0.13 nM,2.16 nM,
N#Cc1ccc2[nH]cc(CCCCN3CCN(c4ccc5oc(C(N)=O)cc5c4)CC3)c2c1 [Vilazodone],,,"Stationary time [4]: 107.8 ± 16.1 s; Effect on stationary time compared with the vehicle group ([4]; forced swimming test, same dose (3 mg/kg)): slightly reduce the stationary time of mice, but there is no significant difference"
Cc1nc(-c2cnc(N3CCN(CCCc4c[nH]c5ccc(C#N)cc45)CC3)nc2)sc1C(N)=O [drawing 37],,,Stationary time [4]: 75.1 ± 13.3 s

# Now from value to compound, other results behind:
IC50 [1],Ki [2],Structure (SMILES),other results
0.79 nM,2.19 nM,"N#Cc1ccc2[nH]cc(CCCCN3CCN(c4ncc(-c5ccc(C(N)=O)nc5)cn4)CC3)c2c1 [Example 3, 5-(2-(4-(4-(5-cyano-1H-indol-3-yl)butyl)piperazin-1-yl)pyrimidin-5-yl)pyridine-2-carboxamide]",
0.66 nM,0.53 nM,"N#Cc1ccc2[nH]cc(CCCCN3CCN(c4ncc(-c5cccc(C(N)=O)n5)cn4)CC3)c2c1 [Example 5, 6-(2-(4-(4-(5-cyano-1H-indol-3-yl)butyl)piperazin-1-yl)pyrimidin-5-yl)pyridine-2-carboxamide]",
0.23 nM,1.1 nM,"N#Cc1ccc2[nH]cc(CCCN3CCN(c4ncc(-c5cccc(C(N)=O)n5)cn4)CC3)c2c1 [Example 6, 6-(2-(4-(3-(5-cyano-1H-indol-3-yl)propyl)piperazin-1-yl)pyrimidin-5-yl)pyridine-2-carboxamide]",
0.45 nM,0.99 nM,"CCOC(=O)c1sc(-c2cnc(N3CCN(CCCCc4c[nH]c5ccc(C#N)cc45)CC3)nc2)nc1C [Example 9, ethyl 2-(2-(4-(4-(5-cyano-1H-indol-3-yl)butyl)piperazin-1-yl)pyrimidin-5-yl)-4-methylthiazole-5-formate]",
